Laboratory results: patent US8247211B2, “Glycopeptide antibiotics” (American Cyanamid Company, priority 2001, dated 2012)
Converted amounts (≈) assume the structure as drawn.

Legend:
Test in all cases: In vitro antibacterial evaluation: minimum inhibitory concentration (MIC), broth dilution method
Assay type in all cases: cell-based
Escherichia coli = tested on: Escherichia coli
Method: (§1) The minimum inhibitory concentration (MIC), the lowest concentration of the antibiotic which inhibits growth of the test organism, is determined by the broth dilution method using Muller-Hinton II […] (Baltimore Biological Laboratories) following the recommendations of the National Committee for Clinical Laboratory Standards [Methods for dilution antimicrobial susceptibility tests for bacteria that grow aerobically, approved standard M7-A2, National Committee for Clinical Laboratory Standards, Villanova, Pa].
(§2) An inoculum level of 5×10^5 CFU/mL, and a range of antibiotic concentrations (64-0.06 μg/mL) is used. […] The test organisms include a spectrum of Gram-positive bacteria comprised of Staphylococcus sp., Streptococcus sp. and Enterococcus sp. These organisms include recent clinical isolates that are resistant to methicillin, penicillin and/or vancomycin.

Streptococcus sp. = tested on: Streptococcus sp.
Method: as §1, §2

Enterococcus sp. = tested on: Enterococcus sp.
Method: as §1, §2

Staphylococcus sp. = conditions: broth dilution, 18 hours at 35° C.
Method: as §1, §2

MIC Escherichia coli (ATCC 25922) (Escherichia coli; strain ATCC 25922): 64 µg/mL (≈ 43.9 µM) | MIC Escherichia coli (GC 4559) (Escherichia coli; strain GC 4559): 64 µg/mL (≈ 43.9 µM) | MIC Streptococcus pneumoniae (ATCC 6301) (Streptococcus sp.; strain ATCC 6301): <0.06 µg/mL | MIC Streptococcus pneumoniae (GC 1894) (Streptococcus sp.; strain GC 1894): <0.06 µg/mL | MIC Streptococcus pyogenes (GC 4563) (Streptococcus sp.; strain GC 4563): 0.25 µg/mL (≈ 0.171 µM) | MIC Streptococcus agalactiae (GC 4564) (Streptococcus sp.; strain GC 4564): 0.5 µg/mL (≈ 0.343 µM) | MIC Streptococcus pneumoniae (GC 4565) (Streptococcus sp.; strain GC 4565): <0.06 µg/mL | MIC Enterococcus faecalis (ATCC 29212) (Enterococcus sp.; strain ATCC 29212): 8 µg/mL (≈ 5.49 µM) | MIC Enterococcus faecalis (GC 2242) (Enterococcus sp.; strain GC 2242): 4 µg/mL (≈ 2.74 µM) | MIC Enterococcus faecium (GC 2243) (Enterococcus sp.; strain GC 2243): 4 µg/mL (≈ 2.74 µM) | MIC Enterococcus faecalis (GC 2691) (Enterococcus sp.; strain GC 2691): 8 µg/mL (≈ 5.49 µM) | MIC Enterococcus faecalis (GC 3059) (Enterococcus sp.; strain GC 3059): 8 µg/mL (≈ 5.49 µM) | MIC Enterococcus faecalis (GC 4552) (Enterococcus sp.; strain GC 4552): 8 µg/mL (≈ 5.49 µM) | MIC Enterococcus faecalis (GC 4553) (Enterococcus sp.; strain GC 4553): 8 µg/mL (≈ 5.49 µM) | MIC Enterococcus faecalis (GC 4554) (Enterococcus sp.; strain GC 4554): 8 µg/mL (≈ 5.49 µM) | MIC Enterococcus faecium (GC 4556) (Enterococcus sp.; strain GC 4556): 4 µg/mL (≈ 2.74 µM) | MIC Enterococcus faecium (GC 4557) (Enterococcus sp.; strain GC 4557): 2 µg/mL (≈ 1.37 µM) | MIC Enterococcus avium (GC 4558) (Enterococcus sp.; strain GC 4558): 8 µg/mL (≈ 5.49 µM) | MIC Enterococcus faecalis (GC 6189) (Enterococcus sp.; strain GC 6189): 4 µg/mL (≈ 2.74 µM) | MIC Coagulase Negative Staphylococcus (GC 4547) (Staphylococcus sp.; 5×10^5 CFU/mL): 1 µg/mL (≈ 0.686 µM) | MIC Coagulase Negative Staphylococcus (GC 4548) (Staphylococcus sp.; 5×10^5 CFU/mL): 0.5 µg/mL (≈ 0.343 µM) | MIC Coagulase Negative Staphylococcus (GC 4549) (Staphylococcus sp.; 5×10^5 CFU/mL): 0.5 µg/mL (≈ 0.343 µM) | MIC Coagulase Negative Staphylococcus (GC 4551) (Staphylococcus sp.; 5×10^5 CFU/mL): 2 µg/mL (≈ 1.37 µM) | MIC Coagulase Negative Staphylococcus (GC 6257) (Staphylococcus sp.; 5×10^5 CFU/mL): 0.5 µg/mL (≈ 0.343 µM) | MIC Staphylococcus aureus (ATCC 29213) (Staphylococcus sp.; 5×10^5 CFU/mL): 2 µg/mL (≈ 1.37 µM) | MIC Staphylococcus aureus (GC 1131) (Staphylococcus sp.; 5×10^5 CFU/mL): 2 µg/mL (≈ 1.37 µM) | MIC Staphylococcus aureus (GC 3051) (Staphylococcus sp.; 5×10^5 CFU/mL): 2 µg/mL (≈ 1.37 µM) | MIC Staphylococcus aureus (GC 3053) (Staphylococcus sp.; 5×10^5 CFU/mL): 4 µg/mL (≈ 2.74 µM) | MIC Staphylococcus aureus (GC 4541) (Staphylococcus sp.; 5×10^5 CFU/mL): 2 µg/mL (≈ 1.37 µM) | MIC Staphylococcus aureus (GC 4542) (Staphylococcus sp.; 5×10^5 CFU/mL): 2 µg/mL (≈ 1.37 µM) | MIC Staphylococcus aureus (GC 4544) (Staphylococcus sp.; 5×10^5 CFU/mL): 2 µg/mL (≈ 1.37 µM) | MIC Staphylococcus aureus (GC 4545) (Staphylococcus sp.; 5×10^5 CFU/mL): 2 µg/mL (≈ 1.37 µM) | MIC Staphylococcus aureus-SMITH (GC 4543) (Staphylococcus sp.; 5×10^5 CFU/mL): 1 µg/mL (≈ 0.686 µM) | MIC Staphylococcus aureus (ATCC 29213) (Staphylococcus sp.; strain ATCC 29213): 2 µg/mL (≈ 1.37 µM) | MIC Staphylococcus aureus (GC 1131) (Staphylococcus sp.; strain GC 1131): 2 µg/mL (≈ 1.37 µM) | MIC Staphylococcus aureus (GC 3051) (Staphylococcus sp.; strain GC 3051): 2 µg/mL (≈ 1.37 µM) | MIC Staphylococcus aureus (GC 3053) (Staphylococcus sp.; strain GC 3053): 4 µg/mL (≈ 2.74 µM) | MIC Staphylococcus aureus (GC 4541) (Staphylococcus sp.; strain GC 4541): 2 µg/mL (≈ 1.37 µM) | MIC Staphylococcus aureus (GC 4542) (Staphylococcus sp.; strain GC 4542): 2 µg/mL (≈ 1.37 µM) | MIC Staphylococcus aureus-SMITH (GC 4543) (Staphylococcus sp.; strain GC 4543): 1 µg/mL (≈ 0.686 µM) | MIC Staphylococcus aureus (GC 4544) (Staphylococcus sp.; strain GC 4544): 2 µg/mL (≈ 1.37 µM) | MIC Staphylococcus aureus (GC 4545) (Staphylococcus sp.; strain GC 4545): 2 µg/mL (≈ 1.37 µM) | MIC Coagulase Negative Staphylococcus (GC 4547) (Staphylococcus sp.; strain GC 4547): 1 µg/mL (≈ 0.686 µM) | MIC Coagulase Negative Staphylococcus (GC 4548) (Staphylococcus sp.; strain GC 4548): 0.5 µg/mL (≈ 0.343 µM) | MIC Coagulase Negative Staphylococcus (GC 4549) (Staphylococcus sp.; strain GC 4549): 0.5 µg/mL (≈ 0.343 µM) | MIC Coagulase Negative Staphylococcus (GC 4551) (Staphylococcus sp.; strain GC 4551): 2 µg/mL (≈ 1.37 µM) | MIC Coagulase Negative Staphylococcus (GC 6257) (Staphylococcus sp.; strain GC 6257): 0.5 µg/mL (≈ 0.343 µM)
Compound: COc1cc(C2OCC3OC(OC4C(CO)OC(Oc5ccc(CC6NC(=O)C(C(C)c7ccccc7)NC(=O)CNC(=O)C(CO)NC(=O)C(C(O)C7CNC(=N)N7C7OC(CO)C(O)C(O)C7O)NC(=O)C(C(O)C7CNC(=N)N7)NC6=O)cc5)C(O)C4O)C(O)C(O)C3O2)ccc1[N+](=O)[O-] (stereo not drawn) [Example 153, Cyclo[glycyl-β-methylphenylalanyl-O-[4-O-[4,6-O-(3-methoxy-4-nitrobenzylidene)hexopyranosyl]hexopyranosyl]tyrosyl-3-(2-iminoimidazolidin-4-yl)seryl-3-(3-hexopyranosyl-2-iminoimidazolidin-4-yl)serylseryl]]
MIC Staphylococcus haemolyticus (GC 4546) (Staphylococcus sp.; 5×10^5 CFU/mL): 1 µg/mL (≈ 0.686 µM) | MIC Staphylococcus haemolyticus (GC 4546) (Staphylococcus sp.; strain GC 4546): 1 µg/mL (≈ 0.686 µM)
